# What was measured:
# [1] = in vitro; settings: human, human foreskin fibroblasts, MTT Assay
# [2] = drug cytotoxicity in Vero cells (CPE-inhibition assay); settings: monkey, vero cells
# [3] = system: Vero cells; assay: as above; settings: Vero
# [4] = system: duck hepatitis B virus (DHBV); assay: efficacy against hepatitis B virus in vivo in ducklings; parameters: species or system Peking duckling infected with duck hepatitis B virus
# Description: The test method is an adaptation of the method of Smee, et al., Antimicrob. Agents Chemotherap. 27 277 (1985). The serum level of duck hepatitis B virus (DHBV) DNA was monitored in 6 infected Peking ducklings from age 6 days to age 27 days. Four ducklings were treated with 70 mg/kg/day IP, b.i.d. of the test compound as a 3 mg/ml solution in 0.9% aqueous NaCl on days 10-17. Two control ducklings were treated with 23 ml/kg/day IP, b.i.d. of 0.9% aqueous NaCl on days 10-17. The level of DHBV DNA in the duckling serum was measured daily.
# [5] = system: HSV-1(E-377); assay: plaque reduction, HSV-1(E-377) in Vero cells; assay type: cell-based, Herpes simplex virus type 1; settings: Human alphaherpesvirus 1, plaque reduction 50%, read-out: MIC50
# Description: After the adsorption period, the infected cell monolayers were treated in duplicate with serial dilutions of the test compound. Duplicate cell controls containing medium alone and virus controls containing medium and virus were run simultaneously with the test compound. […] Plaques visible to the unaided eye were counted and the mean number of plaques in the duplicate wells for each compound concentration tested and for the untreated, virus infected controls were determined.
smiles,measurement,setting,value
"Nc1nc2c(ncn2C2CC(CO)C2CO)c(=O)[nH]1 (stereo not drawn) [Example 1I, 9-(2',3'-Bis(hydroxymethyl)cyclobutyl)guanine]",viability,[1]; 3.2 ug/ml,79%
same,viability,[1]; 10 ug/ml,76%
same,viability,[1]; 32 ug/ml,72%
same,viability,[1]; 100 ug/ml,62%
same,MCC,[2],100 µg/mL
same,MCC,"[2]; MTC (minimum drug concentration causing any cytotoxicity), Vero, HSV-2 (MS) experiment",320 µg/mL
same,MTC (minimum drug concentration causing any cytotoxicity),[3]; HSV-2 (BW9787) TK- experiment,100 µg/mL
same,MTC (minimum drug concentration causing any cytotoxicity),[3]; HSV-2 (MS) experiment,320 µg/mL
same,Serum DHBV DNA,"[4]; duck 1, age 6 days, before treatment",187 ng/mL
same,Serum DHBV DNA,"[4]; duck 1, age 7 days, before treatment",156 ng/mL
same,Serum DHBV DNA,"[4]; duck 1, age 8 days, before treatment",168 ng/mL
same,Serum DHBV DNA,"[4]; duck 1, age 9 days, before treatment",233 ng/mL
same,Serum DHBV DNA,"[4]; duck 1, age 10 days, 70 mg/kg/day IP days 10-17",213 ng/mL
same,Serum DHBV DNA,"[4]; duck 1, age 11 days, 70 mg/kg/day IP days 10-17",155 ng/mL
same,Serum DHBV DNA,"[4]; duck 1, age 12 days, 70 mg/kg/day IP days 10-17",64 ng/mL
same,Serum DHBV DNA,"[4]; duck 1, age 13 days, 70 mg/kg/day IP days 10-17",11 ng/mL
same,Serum DHBV DNA,"[4]; duck 1, age 14 days, 70 mg/kg/day IP days 10-17",6 ng/mL
same,Serum DHBV DNA,"[4]; duck 1, age 15 days, 70 mg/kg/day IP days 10-17",< 1 ng/mL
same,Serum DHBV DNA,"[4]; duck 1, age 16 days, 70 mg/kg/day IP days 10-17",< 1 ng/mL
same,Serum DHBV DNA,"[4]; duck 1, age 17 days, 70 mg/kg/day IP days 10-17",< 1 ng/mL
same,Serum DHBV DNA,"[4]; duck 1, age 18 days, 70 mg/kg/day IP days 10-17",< 1 ng/mL
same,Serum DHBV DNA,"[4]; duck 1, age 19 days, 70 mg/kg/day IP days 10-17",< 1 ng/mL
same,Serum DHBV DNA,"[4]; duck 1, age 20 days, 70 mg/kg/day IP days 10-17",< 1 ng/mL
same,Serum DHBV DNA,"[4]; duck 1, age 21 days, 70 mg/kg/day IP days 10-17",< 1 ng/mL
same,Serum DHBV DNA,"[4]; duck 1, age 22 days, 70 mg/kg/day IP days 10-17",3 ng/mL
same,Serum DHBV DNA,"[4]; duck 1, age 23 days, 70 mg/kg/day IP days 10-17",12 ng/mL
same,Serum DHBV DNA,"[4]; duck 1, age 24 days, 70 mg/kg/day IP days 10-17",16 ng/mL
same,Serum DHBV DNA,"[4]; duck 1, age 25 days, 70 mg/kg/day IP days 10-17",31 ng/mL
same,Serum DHBV DNA,"[4]; duck 1, age 26 days, 70 mg/kg/day IP days 10-17",71 ng/mL
same,Serum DHBV DNA,"[4]; duck 1, age 27 days, 70 mg/kg/day IP days 10-17",134 ng/mL
same,Serum DHBV DNA,"[4]; duck 2, age 6 days, before treatment",143 ng/mL
same,Serum DHBV DNA,"[4]; duck 2, age 7 days, before treatment",111 ng/mL
same,Serum DHBV DNA,"[4]; duck 2, age 8 days, before treatment",121 ng/mL
same,Serum DHBV DNA,"[4]; duck 2, age 9 days, before treatment",102 ng/mL
same,Serum DHBV DNA,"[4]; duck 2, age 10 days, 70 mg/kg/day IP days 10-17",120 ng/mL
same,Serum DHBV DNA,"[4]; duck 2, age 11 days, 70 mg/kg/day IP days 10-17",61 ng/mL
same,Serum DHBV DNA,"[4]; duck 2, age 12 days, 70 mg/kg/day IP days 10-17",27 ng/mL
same,Serum DHBV DNA,"[4]; duck 2, age 13 days, 70 mg/kg/day IP days 10-17",2 ng/mL
same,Serum DHBV DNA,"[4]; duck 2, age 14 days, 70 mg/kg/day IP days 10-17",1 ng/mL
same,Serum DHBV DNA,"[4]; duck 2, age 15 days, 70 mg/kg/day IP days 10-17",< 1 ng/mL
same,Serum DHBV DNA,"[4]; duck 2, age 16 days, 70 mg/kg/day IP days 10-17",< 1 ng/mL
same,Serum DHBV DNA,"[4]; duck 2, age 17 days, 70 mg/kg/day IP days 10-17",< 1 ng/mL
same,Serum DHBV DNA,"[4]; duck 2, age 18 days, 70 mg/kg/day IP days 10-17",< 1 ng/mL
same,Serum DHBV DNA,"[4]; duck 2, age 19 days, 70 mg/kg/day IP days 10-17",< 1 ng/mL
same,Serum DHBV DNA,"[4]; duck 2, age 20 days, 70 mg/kg/day IP days 10-17",< 1 ng/mL
same,Serum DHBV DNA,"[4]; duck 2, age 21 days, 70 mg/kg/day IP days 10-17",< 1 ng/mL
same,Serum DHBV DNA,"[4]; duck 2, age 22 days, 70 mg/kg/day IP days 10-17",< 1 ng/mL
same,Serum DHBV DNA,"[4]; duck 2, age 23 days, 70 mg/kg/day IP days 10-17",< 1 ng/mL
same,Serum DHBV DNA,"[4]; duck 2, age 24 days, 70 mg/kg/day IP days 10-17",< 1 ng/mL
same,Serum DHBV DNA,"[4]; duck 2, age 25 days, 70 mg/kg/day IP days 10-17",2 ng/mL
same,Serum DHBV DNA,"[4]; duck 2, age 26 days, 70 mg/kg/day IP days 10-17",2 ng/mL
same,Serum DHBV DNA,"[4]; duck 2, age 27 days, 70 mg/kg/day IP days 10-17",7 ng/mL
same,Serum DHBV DNA,"[4]; duck 3, age 6 days, before treatment",520 ng/mL
same,Serum DHBV DNA,"[4]; duck 3, age 7 days, before treatment",311 ng/mL
same,Serum DHBV DNA,"[4]; duck 3, age 8 days, before treatment",277 ng/mL
same,Serum DHBV DNA,"[4]; duck 3, age 9 days, before treatment",412 ng/mL
same,Serum DHBV DNA,"[4]; duck 3, age 10 days, 70 mg/kg/day IP days 10-17",377 ng/mL
same,Serum DHBV DNA,"[4]; duck 3, age 11 days, 70 mg/kg/day IP days 10-17",130 ng/mL
same,Serum DHBV DNA,"[4]; duck 3, age 12 days, 70 mg/kg/day IP days 10-17",77 ng/mL
same,Serum DHBV DNA,"[4]; duck 3, age 13 days, 70 mg/kg/day IP days 10-17",16 ng/mL
same,Serum DHBV DNA,"[4]; duck 3, age 14 days, 70 mg/kg/day IP days 10-17",2 ng/mL
same,Serum DHBV DNA,"[4]; duck 3, age 15 days, 70 mg/kg/day IP days 10-17",2 ng/mL
same,Serum DHBV DNA,"[4]; duck 3, age 16 days, 70 mg/kg/day IP days 10-17",< 1 ng/mL
same,Serum DHBV DNA,"[4]; duck 3, age 17 days, 70 mg/kg/day IP days 10-17",< 1 ng/mL
same,Serum DHBV DNA,"[4]; duck 3, age 18 days, 70 mg/kg/day IP days 10-17",< 1 ng/mL
same,Serum DHBV DNA,"[4]; duck 4, age 6 days, before treatment",288 ng/mL
same,Serum DHBV DNA,"[4]; duck 4, age 7 days, before treatment",215 ng/mL
same,Serum DHBV DNA,"[4]; duck 4, age 8 days, before treatment",256 ng/mL
same,Serum DHBV DNA,"[4]; duck 4, age 9 days, before treatment",311 ng/mL
same,Serum DHBV DNA,"[4]; duck 4, age 10 days, 70 mg/kg/day IP days 10-17",333 ng/mL
same,Serum DHBV DNA,"[4]; duck 4, age 11 days, 70 mg/kg/day IP days 10-17",132 ng/mL
same,Serum DHBV DNA,"[4]; duck 4, age 12 days, 70 mg/kg/day IP days 10-17",21 ng/mL
same,Serum DHBV DNA,"[4]; duck 4, age 13 days, 70 mg/kg/day IP days 10-17",2 ng/mL
same,Serum DHBV DNA,"[4]; duck 4, age 14 days, 70 mg/kg/day IP days 10-17",1 ng/mL
same,Serum DHBV DNA,"[4]; duck 4, age 15 days, 70 mg/kg/day IP days 10-17",1 ng/mL
same,Serum DHBV DNA,"[4]; duck 4, age 16 days, 70 mg/kg/day IP days 10-17",1 ng/mL
same,Serum DHBV DNA,"[4]; duck 4, age 17 days, 70 mg/kg/day IP days 10-17",< 1 ng/mL
same,Serum DHBV DNA,"[4]; duck 4, age 18 days, 70 mg/kg/day IP days 10-17",< 1 ng/mL
same,Serum DHBV DNA,"[4]; duck 4, age 19 days, 70 mg/kg/day IP days 10-17",< 1 ng/mL
same,Serum DHBV DNA,"[4]; duck 4, age 20 days, 70 mg/kg/day IP days 10-17",< 1 ng/mL
same,Serum DHBV DNA,"[4]; duck 4, age 21 days, 70 mg/kg/day IP days 10-17",< 1 ng/mL
same,Serum DHBV DNA,"[4]; duck 4, age 22 days, 70 mg/kg/day IP days 10-17",< 1 ng/mL
same,Serum DHBV DNA,"[4]; duck 4, age 23 days, 70 mg/kg/day IP days 10-17",< 1 ng/mL
same,Serum DHBV DNA,"[4]; duck 4, age 24 days, 70 mg/kg/day IP days 10-17",< 1 ng/mL
same,Serum DHBV DNA,"[4]; duck 4, age 25 days, 70 mg/kg/day IP days 10-17",< 1 ng/mL
same,death of treated ducks,"[4]; ducks 3 and 4, 70 mg/kg/day IP b.i.d. days 10-17","ducks 3 and 4 died on day 18 and day 26, respectively"
same,EC50,[5],0.5 µg/mL
